Experimental data from patent US8957071B2, “Treatment of vascular, autoimmune and inflammatory diseases using low dosages of IMPDH inhibitors” (Aspreva Pharmaceuticals S.A., priority 2005, dated 2015).

Assays:
[1] = Serum mycophenolic acid levels in Ldlr−/− mice by commercial assay; assay type: in vivo
Experimental: (§1) Diet W will be formulated with CellCept® incorporated directly into the chow, at concentrations of 0.04%, 0.08% or 0.26% mycophenolate mofetil by weight. When administered in this way, the mice will be expected to consume 15 mg/kg/day (“low dose”), 30 mg/kg/day (“low dose”), or 100 mg/kg/day (“high-dose”) of the drug. Mice will be sacrificed 12 weeks after feeding on the study diet, and the endpoints determined.
No MPA was detected in the serum of control mice (data not shown).

male Ldlr−/− mice [2] = experiment: Atherosclerosis in Ldlr−/− (LDLRKO) mice on Western-type diet: percentage of aortic sinus occluded by plaque; assay type: in vivo; conditions: 12 weeks; for reduction of atherosclerosis (AS): male Ldlr−/− mice; for percentage of aortic sinus occluded by plaque: control 16%
Excerpt: (§2) This example illustrates the effect of low-dose MMF on mice lacking the low-density lipoprotein receptor B6.129S7-Ldlrtm1Her/J (hereinafter referred to as LDLRKO mice) obtained from Jackson Labs. When placed on a high-fat, high-cholesterol “Western-type” diet, these mice develop severe atherosclerosis (Ishibashi et al., 1994, J Clin Invest. 93(5):1885-93).
as §1
The primary endpoint will be evaluated using histological analysis of plaque area at the aortic root. The total lesion area in oil red O-stained cryostat sections of the aortic root is quantified using a Leica image analysis system. Mean lesion area (as a percentage of aortic cross-sectional area) is calculated from 10 oil red O-stained sections, beginning at the appearance of the tricuspid valves.
(§3) Plaque composition is analysed as a secondary endpoint using oil red O staining (for lipid content—see above), Movat's pentachrome staining (for lesion complexity including extracellular matrix and glycosaminoglycans), and haematoxylin and eosin (for macrophage content). The average atherosclerotic area is compared between the groups using the two-way ANOVA test. Additional secondary endpoints will be plasma levels of total cholesterol, HDL cholesterol, LDL cholesterol, triglycerides, and glucose, as well as en face visualization of the thoracic and abdominal aortas stained with oil red O.
Low-dose therapy (15 mg/kg/day, a dosage equivalent to approximately 1 gram per day in a 70 kg human) reduced AS by 31% (from 16% to 11% of the sinus) whereas high-dose therapy reduced AS by 61% (from 16% to 6.2%). The response was dose-dependent. Quantification was performed by a single, trained observer blinded to treatment group.

rabbits = conditions: 30 mg/kg/day; cited from earlier work
male Ldlr−/− mice [3] = experiment: Serum lipids (triglycerides, phospholipids, HDL) in Ldlr−/− mice on Western-type diet; assay type: in vivo; conditions: for serum phospholipid (PPL) levels: control 1078+91 mg/dL; for serum triglyceride (Tgs) levels: control 1198+137 mg/dL
Excerpt: as §2, §1, §3
The response was dose-dependent. Quantification was performed by a single, trained observer blinded to treatment group. Mouse groups are the same as for FIG. 1.
Importantly, levels of serum HDL-cholesterol are not lowered by MMF treatment. Quantification was performed by a single, trained observer blinded to treatment group. Mouse groups are the same as for FIG. 1.

[4] = system: male New Zealand White (NZW) rabbits; experiment: High-cholesterol New Zealand White rabbit model of atherogenesis (Example 2); assay type: in vivo; conditions: 1 or 5 mg/kg by gastric gavage daily, 12 weeks
Experimental: This example illustrates the use of low dose MMF in the treatment of a rabbit model of atherogenesis.
Study Design: Studies are done in 30 male New Zealand White (NZW) rabbits weighing 1.0-1.5 kg at the beginning of the experiment. After obtaining baseline blood samples, rabbits are fed ad libitum a 1% cholesterol diet for 12 weeks. This diet is prepared by dissolving cholesterol (Sigma, St. Louis, Mo.) in 100% ethanol at a temperature of 60° C., mixing this solution with standard rabbit chow (Purina), and allowing the complete evaporation of the ethanol.
The rabbits are divided into three groups and treated as follows: (1) CHOL+MMF (extra-low) group (n=10) receives by gastric gavage 5 mg/kg of MMF in 0.4 ml of water; (2) CHOL+MMF (ultra-low) group (n=10) receives by gastric gavage 1 mg/kg of MMF in 0.4 ml of water; and (3) CHOL group (n=10) receives by the same route daily 0.4 ml of water. […] The MMF and vehicle are given daily throughout the 12 experimental weeks.
Blood samples for determination of plasma cholesterol and triglyceride are taken every 2 weeks. […]
Determination of aortic cholesterol content: Lipids are isolated from the aortic segments as described by Folch et al., 1957, J Biol Chem. […]:497-509. […] Cholesterol is determined in the lipid extract by the method of Zlatikis et al., 1953, J Lab Clin Med. 1:486-492. […]

[5] = cited from earlier work
[6] = high-dose (100 mg/kg/day) in chow

| average serum mycophenolic acid (MPA) level ([1]; high-dose group (MMF 100 mg/kg/day in chow)) [mg/L] | average serum mycophenolic acid (MPA) level ([1]; low-dose group (MMF 15 mg/kg/day in chow)) [mg/L] | Compound | reduction of atherosclerosis (AS) (male Ldlr−/− mice [2]; [6]) [%] | percentage of aortic sinus occluded by plaque (male Ldlr−/− mice [2]; [6]) [%] | reduction of atherosclerosis (AS) (male Ldlr−/− mice [2]; low-dose 15 mg/kg/day in chow) [%] | percentage of aortic sinus occluded by plaque (male Ldlr−/− mice [2]; low-dose 15 mg/kg/day in chow) | effect on atherogenic potential of a high-cholesterol diet (rabbits) | serum phospholipid (PPL) levels (male Ldlr−/− mice [3]; high-dose (100 mg/kg/day)) | serum triglyceride (Tgs) levels (male Ldlr−/− mice [3]; high-dose (100 mg/kg/day)) | serum phospholipid (PPL) levels (male Ldlr−/− mice [3]; low-dose 15 mg/kg/day) | serum triglyceride (Tgs) levels (male Ldlr−/− mice [3]; low-dose 15 mg/kg/day) | effect on HDL levels (male Ldlr−/− mice [3]; male Ldlr−/− mice, same groups as FIG. 1) | size and severity of the atherosclerotic lesion (intima/media ratio, aortic cholesterol content), expected [4] | solubility in water [5] |
| --- | --- | --- | --- | --- | --- | --- | --- | --- | --- | --- | --- | --- | --- | --- |
| 3.65 ± 0.3 | 1.16 ± 0.09 | COc1c(C)c2c(c(O)c1C/C=C(\C)CCC(=O)O)C(=O)OC2 [MPA, mycophenolic acid] | – | – | – | – | – | – | – | – | – | – | – | – |
| – | – | COc1c(C)c2c(c(O)c1C/C=C(\C)CCC(=O)OCCN1CCOCC1)C(=O)OC2 [mycophenolate mofetil, morpholinoethyl E-6-(1,3-dihydro-4-hydroxy-6-methoxy-7-methyl-3-oxo-5-isobenzofuranyl)-4-methyl-4-hexenoate] | 61 | 6.2 | 31 | 11 % of the sinus | ameliorated the atherogenic potential of a high-cholesterol diet | 696+115 mg/dL | 452+80 mg/dL | 964+87 mg/dL | 994+149 mg/dL | does not appear to affect HDL levels | significantly reduced | insoluble in water |
